Laboratory results published in patent publication EP0096569A2, “Triazole antifungal agents” (Pfizer Limited, priority 1982, dated 1983).

Each compound was assayed on Candida albicans (assay: in vivo evaluation in mice inoculated with Candida albicans (protection against lethal infection, PD50)). Details: oral, dose level giving 50% protection against the lethal effect of the infection.
Parameters: unit not given beside the values
Protocol: The in vivo evaluation of the compounds can be carried out at a series of dose levels by intraperitoneal or intravenous injection or by oral administration, to mice which are inoculated with a strain of Candida albicans. Untreated mice die within 48 hours and the dose level at which the compound provides 50% protection against the lethal effect of the infection (PDSO) is noted.
Activity Data in mice (oral PD50 values)
For Clc1ccc(C(Cl)(Cn2cncn2)Cn2cncn2)c(Cl)c1 [Product of Example 1, 1,3-Bis-(1H-1,2,4-triazol-1-yl)-2-chloro-2-(2,4-dichlorophenyl) propane], the PD50 was 0.1.
In the case of Clc1ccc(C(Br)(Cn2cncn2)Cn2cncn2)c(Cl)c1 [Product of Example 2, 1,3-Bis(lH-1,2,4-triazol-1-yl)-2-bromo-2-(2,4-dichlorophenyl) propane], the PD50 is reported as 0.03.
In the case of Fc1ccc(C(Br)(Cn2cncn2)Cn2cncn2)c(F)c1 [Product of Example 3, 1,3-Bis(1H-1,2,4-triazol-1-yl)-2-bromo-2-(2,4-difluorophenyl)propane], the PD50 is reported as 0.3.
FC(Cn1cncn1)(Cn1cncn1)c1ccc(Cl)cc1Cl [Product of Example 4, 1,3-Bis(1H-1,2,4-triazol-1-yl)-2-(2,4-dichlorophenyl)-2-fluoro-propane] was tested, and the PD50 was 1.8.
In the case of Fc1cc(C(Cl)(Cn2cncn2)Cn2cncn2)c(F)cc1Br [Product of Example 5], the PD50 is reported as 1.6.
Fc1ccc(C(Cl)(Cn2cncn2)Cn2cncn2)c(F)c1 [Product of Example 6] showed a PD50 of 0.9.
In the case of ClC(Cn1cncn1)(Cn1cncn1)c1ccc(I)cc1 [Product of Example 7], the PD50 is reported as 0.2.
In the case of Clc1ccc(C(Cl)(Cn2cncn2)Cn2cncn2)cc1 [Product of Example 8], the PD50 is reported as 0.3.
Clc1ccc(C(Cl)(Cn2cncn2)Cn2cncn2)nc1 [Product of Example 9, 1,3-Bis(1A-1,2,4-triazol-1-yl)-2-chloro-2-(5-chloropyrid-2-yl)propane] showed a PD50 of 0.2.
